Converted amounts (≈) assume the structure as drawn.
Tests used:
Candida tropicalis = assay: Antifungal activity against Candida tropicalis after 48 hrs by broth microdilution technique; format: functional
Saccharomyces cerevisiae = assay: Antifungal activity against Saccharomyces cerevisiae after 48 hrs by broth microdilution technique; format: functional
Aspergillus flavus = assay: Antimicrobial activity against Aspergillus flavus after 48 hrs by broth microdilution technique; format: functional
Trichophyton rubrum = assay: Antimicrobial activity against Trichophyton rubrum after 48 hrs by broth microdilution technique; format: functional
Aspergillus fumigatus = assay: Antimicrobial activity against Aspergillus fumigatus after 48 hrs by broth microdilution technique; format: functional
Nannizzia gypsea = assay: Antimicrobial activity against Microsporum gypseum after 48 hrs by broth microdilution technique; format: functional
[1] = test system: Trichophyton mentagrophytes; assay: Antimicrobial activity against Trichophyton mentagrophytes after 48 hrs by broth microdilution technique; format: functional
Cryptococcus neoformans = assay: Antifungal activity against Cryptococcus neoformans after 48 hrs by broth microdilution technique; format: functional
Candida albicans = assay: Antifungal activity against Candida albicans after 48 hrs by broth microdilution technique; format: functional
Aspergillus niger = assay: Antimicrobial activity against Aspergillus niger after 48 hrs by broth microdilution technique; format: functional
Epidermophyton floccosum = assay: Antimicrobial activity against Epidermophyton floccosum after 48 hrs by broth microdilution technique; format: functional
[2] = Lipophilicity, log P of the compound; format: physicochemical; conditions: octanol/water

Compound	MIC (Candida tropicalis) [µg/mL]	MIC (Saccharomyces cerevisiae) [µg/mL]	MIC (Aspergillus flavus) [µg/mL]	MIC (Trichophyton rubrum) [µg/mL]	MIC (Aspergillus fumigatus) [µg/mL]	MIC (Nannizzia gypsea) [µg/mL]	MIC [1] [µg/mL]	MIC (Cryptococcus neoformans) [µg/mL]	MIC (Candida albicans) [µg/mL]	MIC (Aspergillus niger) [µg/mL]	MIC (Epidermophyton floccosum) [µg/mL]	logP [2]
CCCCCCCCCCCCCCCCOC(=O)c1cc(O)c(O)c(O)c1 [HEXADECYL GALLATE]	> 250	> 250	> 250	250 (≈ 634 µM)	> 250	250 (≈ 634 µM)	125 (≈ 317 µM)	> 250	> 250	> 250		
CC(=O)N1CCN(c2ccc(OCC3COC(Cn4ccnc4)(c4ccc(Cl)cc4Cl)O3)cc2)CC1 (stereo unspecified) [KETOCONAZOLE]	0.125 (≈ 0.235 µM)	3.12 (≈ 5.87 µM)	0.78 (≈ 1.47 µM)		0.78 (≈ 1.47 µM)			0.39 (≈ 0.734 µM)	1.56 (≈ 2.94 µM)	1.56 (≈ 2.94 µM)		
CCCCCCCCCOC(=O)c1cc(O)c(O)c(O)c1 [NONYL GALLATE]	8 (≈ 27 µM)	8 (≈ 27 µM)	62.5 (≈ 211 µM)	8 (≈ 27 µM)	62.5 (≈ 211 µM)	8 (≈ 27 µM)	8 (≈ 27 µM)	8 (≈ 27 µM)	8 (≈ 27 µM)	125 (≈ 422 µM)	25 (≈ 84.4 µM)	3.7
CCCCCCCCCCCCCCCCCCOC(=O)c1cc(O)c(O)c(O)c1 [OCTADECYL GALLATE]	> 250	> 250	> 250	250 (≈ 592 µM)	> 250	> 250	> 250	> 250	> 250	> 250	250 (≈ 592 µM)	
CCCCCCCCOC(=O)c1cc(O)c(O)c(O)c1 [OCTYL_GALLATE]	62.5 (≈ 221 µM)	50 (≈ 177 µM)	62.5 (≈ 221 µM)	6.25 (≈ 22.1 µM)	62.5 (≈ 221 µM)	6.25 (≈ 22.1 µM)	12.5 (≈ 44.3 µM)	50 (≈ 177 µM)	62.5 (≈ 221 µM)	62.5 (≈ 221 µM)	6.25 (≈ 22.1 µM)	3.7
CCCCCOC(=O)c1cc(O)c(O)c(O)c1 [PENTYL GALLATE]	> 250	> 250	> 250	50 (≈ 208 µM)	> 250	50 (≈ 208 µM)	50 (≈ 208 µM)	> 250	> 250	> 250	100 (≈ 416 µM)	
Oc1cccc(O)c1O [PYROGALLOL]	100 (≈ 793 µM)	100 (≈ 793 µM)	> 250	25 (≈ 198 µM)	100 (≈ 793 µM)	50 (≈ 396 µM)	50 (≈ 396 µM)	62.5 (≈ 496 µM)	100 (≈ 793 µM)	> 250	12.5 (≈ 99.1 µM)	

More lines, in order of falling MIC (Trichophyton rubrum), values ahead:

MIC (Candida tropicalis) [µg/mL]	MIC (Saccharomyces cerevisiae) [µg/mL]	MIC (Aspergillus flavus) [µg/mL]	MIC (Trichophyton rubrum) [µg/mL]	MIC (Aspergillus fumigatus) [µg/mL]	MIC (Nannizzia gypsea) [µg/mL]	MIC [1] [µg/mL]	MIC (Cryptococcus neoformans) [µg/mL]	MIC (Candida albicans) [µg/mL]	MIC (Aspergillus niger) [µg/mL]	MIC (Epidermophyton floccosum) [µg/mL]	Compound	logP [2]
200 (≈ 616 µM)	200 (≈ 616 µM)	> 250	125 (≈ 385 µM)	> 250	125 (≈ 385 µM)	100 (≈ 308 µM)	100 (≈ 308 µM)	250 (≈ 771 µM)	> 250		CCCCCCCCCCCOC(=O)c1cc(O)c(O)c(O)c1 [UNDECYL GALLATE]	
> 250	> 250	> 250	50 (≈ 236 µM)	> 250	75 (≈ 353 µM)	100 (≈ 471 µM)	> 250	> 250	> 250	100 (≈ 471 µM)	CCCOC(=O)c1cc(O)c(O)c(O)c1 [PROPYL GALLATE]	
> 250	> 250	> 250	50 (≈ 136 µM)	> 250	100 (≈ 273 µM)	50 (≈ 136 µM)	250 (≈ 682 µM)	> 250	> 250	> 250	CCCCCCCCCCCCCCOC(=O)c1cc(O)c(O)c(O)c1 [TETRADECYL GALLATE]	
> 250	> 250	> 250	25 (≈ 98.3 µM)	> 250	25 (≈ 98.3 µM)	25 (≈ 98.3 µM)	> 250	> 250	> 250	25 (≈ 98.3 µM)	CCCCCCOC(=O)c1cc(O)c(O)c(O)c1 [HEXYL GALLATE]	
			0.01 (≈ 0.0343 µM)		0.04 (≈ 0.137 µM)	0.04 (≈ 0.137 µM)				0.004 (≈ 0.0137 µM)	CN(C/C=C/C#CC(C)(C)C)Cc1cccc2ccccc12 [TERBINAFINE]	

Source: ChEMBL document CHEMBL1153306, “Relation between lipophilicity of alkyl gallates and antifungal activity against yeasts and filamentous fungi” (Bioorg Med Chem Lett, 2009)
